The record followed here is patent US8617546B2, “Anticancer agent comprising anti-PD-1 antibody or anti-PD-L1 antibody” (Seoul National University Industry Foundation, priority 2008, dated 2013).

Assay [1] deals with anergic iNKT cells. In words: Recovery of responsiveness of anergic iNKT cells in vivo: serum cytokines after secondary α-GC injection. Also noted: species or system C57BL/6 mice. Conditions: 2 μg α-GC, re-injection 14 days later; FIG. 6. The protocol: 200 μg of the control rat IgG, the anti-PD-1 antibody or the anti-PD-L1 antibody was intraperitoneally injected into C57BL/6 mice 24 hrs before treatment with 2 μg of α-GC. 14 days later, 2 μg of α-GC was injected again, followed by the preparation of sera 2 and 12 hrs after the re-injection for ELISA assay of IL-4 and IFN-γ levels, respectively.

The test system of assay [2] is anergic iNKT cells. In words: Recovery of responsiveness of anergic iNKT cells in vitro (cytokine ELISA of supernatants). It is filed as cell-based, C57BL/6 mice. Conditions: pre-treatment with 2 μg α-GC 7 days before restimulation, in presence of control IgG; FIG. 5. How it is done: The α-GC-induced unresponsiveness of iNKT cells was detected as early as 3 days after primary stimulation and observed to persist until 7~30 days after α-GC stimulation. Thus, C57BL/6 mice were injected with 2 μg of α-GC to induce iNKT cell anergy. One week and one month later, splenocytes were isolated from the mice and 5×10^5 cells were incubated for 3 days with 100 ng/ml of α-GC in the presence of 50 μg/ml of the control rat IgG, the anti-PD-1 mAb, the anti-PD-L1 mAb, or the anti-PD-L2 mAb. Also, splenocytes isolated from the mice were incubated for 3 days with 10 ng/ml of α-GC without mAb, and these were represented by ‘activation’. The supernatants were then assayed for IFN-γ and IL-4 levels by ELISA [*:p<0.05 and **:p<0.01 (vs. control rat IgG)].

Assay [3] concerns B16F10 melanoma metastasis. In words: B16F10 melanoma metastasis model with anergy-induced iNKT cells: number of pulmonary nodules. To be noted: anergy induced with control IgG and α-GC; α-GC treatment during tumor inoculation; FIG. 10. It is filed as in vivo, C57BL/6 mice. The protocol: Anergy-induced iNKT cells were assayed for the recovery of anti-tumor activity by the antibodies of the present invention. In this regard, naive C57BL/6 mice were intraperitoneally injected with 200 μg of the control rat IgG, the anti-PD-1 antibody or the anti-PD-L1 antibody 24 hrs after which injection with 2 μg of α-GC induced iNKT cell anergy. 7 days later, 5×10^5 B16F10 tumor cells were i.v. injected. On Day 0, 4 and 8, the mice were treated with 500 ng of α-GC to induce anti-tumor activity of iNKT cells. 14 days later, the lungs were excised and the nodules formed by cancer metastasis were counted (A). The isolated lungs were observed under an optical microscope (B).

Assay [4] concerns iNKT cells. Kind of assay: iNKT cell activation in vivo: serum IFN-γ and IL-4 by ELISA after α-GC treatment. Also noted: species or system C57BL/6 mice. Conditions: 2 μg α-GC; FIG. 3. How it is done: C57BL/6 mice was injected with 200 μg of the control rat IgG, the anti-PD-1 mAb, the anti-PD-L1 mAb or the anti-PD-L2 mAb 24 hrs before treatment with 2 μg of α-GC. Sera were obtained at 0, 2, 6, 12, 24, 48 and 72 hrs after the treatment, followed by ELISA analysis for IFN-γ and IL-4 levels.

The test system of assay [5] is iNKT cells. In words: Expression of PD-1 and PD ligands on iNKT cells after α-GC administration (FACS). It counts as in vivo, C57BL/6 mice. To be noted: FIG. 1. How it is done:
Splenocytes were isolated from C57BL/6 mice administered with 2 μg of α-GC at different time points (0 hr, 6 hrs, 72 hrs, 7 days, one month and two months) after the administration. The cells were stained with a PE-conjugated anti-PD-1 monoclonal antibody, a PE-conjugated anti-PD-L1 monoclonal antibody, a PE-conjugated anti-PD-L2 monoclonal antibody and a PE-conjugated isotype control monoclonal antibody, respectively. iNKT cells were gated on B220^− TCR-β^intα-GC/CD1d:Ig^+ population. PD-1, PD-L1 and PD-L2 expression (open histograms) was analyzed by FACS. Shaded histograms indicate staining with isotype control niAbs.

`CCCCCCCCCCCCCCCCCCCCCCCCCC(=O)N[C@@H](CO[C@H]1O[C@H](CO)[C@H](O)[C@H](O)[C@H]1O)[C@H](O)[C@H](O)CCCCCCCCCCCCCC` [α-GC, α-galactosylceramide]: in assay [1], the “serum IFN-γ upon secondary α-GC injection in mice pretreated with α-GC” value is listed as “significantly low” and the “serum IL-4 upon secondary α-GC injection in mice pretreated with α-GC” value is given as “significantly low”. Also, in assay [2], the “production of IFN-γ on restimulation after α-GC pre-treatment” value was “greatly decrease” and the “production of IL-4 on restimulation after α-GC pre-treatment” value is recorded as “greatly decrease”. For the same molecule, in assay [3], the “tumor growth / metastasis with anergic iNKT cells” value is “did not suppress tumor growth”. Moreover, in assay [4], the “time of peak blood IFN-γ level after α-GC treatment” value is at most 12 h and the “time of peak blood IL-4 level after α-GC treatment” value was at most 2 h. Also, in assay [5] (after 2 μg α-GC), the “PD-L1 expression on iNKT cells” value was “temporarily increased”, the “persistence of the upregulated PD-1 level on iNKT cells” value is “for two months” and the “time for PD-L1 expression to decline toward naive state levels” value is at most 72 h. In addition, the “PD-L2 expression on iNKT cells” value in assay [5] (regardless of activation status) is “not found”. For the same molecule, the “PD-1 expression on iNKT cells” value in assay [5] (splenocytes after 2 μg α-GC, 0 hr to two months) is given as “upregulated”.
